Test results published in paper PMC9317316, “Synthesis and Evaluation of Some New 4H-Pyran Derivatives as Antioxidant, Antibacterial and Anti-HCT-116 Cells of CRC, with Molecular Docking, Antiproliferative, Apoptotic and ADME Investigations” (Pharmaceuticals, 2022).
Several values for one entry are separate records, joined by “and”; a condition that tells them apart may be missing. Identical values can stand only once. Like-named read-outs stand apart in the source and are kept apart here.

Assays:
HCT-116 cells = test: Cell viability (cytotoxicity, LDH release) assay; assay type: cell-based; details: Homo sapiens, 24 h; for viability at 100 µg/mL: read-out: percent of viable cells
Method: The synthesized compounds were also examined at four concentrations (10, 25, 50 and 100 µg/mL) for their cytotoxic effects on human colorectal cancer HCT-116 cells after their incubation together for 24 h.
Cytotoxic potency was examined for a human colon cancer cell line HCT-116 (American Type Culture Collection; Manassas, VA, USA) using various amounts of each compound (10, 25, 50 and 100 µg). Samples were diluted in Dulbecco’s Modified Eagle’s Medium, consisting of 10% Fetal Bovine Serum, and added to cells grown and cultured for 24 h in a 5% CO2-humidified incubator at 37 °C. Then, the activity of lactate dehydrogenase released from damaged cells was determined in the collected supernatant aliquots using an ELISA endpoint assay (Benchmark Plus, Bio-Rad, Hercules, CA, USA). As positive and negative controls, respectively, 0.1% Triton X-100 in the assay medium and the assay medium only were used. Cell viability, shown as mean values ± SDs (n = 3), was expressed as a relative percentage of the OD values determined at 600 nm in compound-treated cells and the control.

[1] = system: K. pneumonia (ATCC 700603); test: Antibacterial viability (CFU) assay, IC50; assay type: cell-based; details: Klebsiella pneumoniae, ATCC700603
Method: (§1) The results for the in vitro antibacterial properties of the synthesized compounds against five Gram-positive and four Gram-negative human-pathogenic strains, which were assessed by both the agar diffusion method (based on inhibition zone (IZ)) and the broth dilution bioassay (for the determination of the half-maximal inhibitory concentration (IC50) values), using ampicillin as the reference antibiotic drug, are shown in Table 2 and Table 3.
(§2) The antibacterial activity of all synthesized compounds was evaluated against the Gram-negative strains E. coli (ATCC 25966), K. pneumonia (ATCC 700603), P. aeruginosa (ATCC 27853) and S. enteric (ATCC 43972) and against the Gram-positive strains B. cereus (ATCC 14579), B. subtilis (ATCC 6633), E. faecalis (ATCC 29122), S. aureus (ATCC 25923) and S. epidermidis (ATCC 14990), using the agar diffusion method through measuring the appearance of the inhibition zone on the surface of the top agar, as reported by Berghe and Vlietinck. Ampicillin (10 µg/well) was used as the positive reference standard. Bacterial viability was also investigated by determining the colony-forming ability (CFU) of bacteria incubated at different time intervals without or with appropriate amounts of the compound, which were mixed with 2 ×10^7 CFU/mL in sterile BHI and incubated under shaking for 60 min at 37 °C. Samples were serially diluted into sterile BHI, streaked onto media agar plates and incubated for 24 h at 37 °C. The antibacterial potency of the tested compounds was expressed as the residual number of CFUs with reference to the initial inoculums. The results presented as the half-maximal (50 %) inhibitory concentration (IC50) values are the means of three different measurements.

B. cereus (ATCC 14579) [2] = test: Antibacterial viability (CFU) assay, IC50; assay type: cell-based; details: Bacillus cereus, ATCC14579
Method: as §1, §2

S. aureus (ATCC 25923) [3] = test: Antibacterial viability (CFU) assay, IC50; assay type: cell-based; details: Staphylococcus aureus, ATCC25923
Method: as §1, §2

E. faecalis (ATCC 29122) [4] = test: Antibacterial viability (CFU) assay, IC50; assay type: cell-based; details: Enterococcus faecalis, ATCC29122
Method: as §1, §2

[5] = system: S. epidermidis (ATCC 14990); test: Antibacterial viability (CFU) assay, IC50; assay type: cell-based; details: Staphylococcus epidermidis, ATCC14990
Method: as §1, §2

[6] = system: P. aeruginosa (ATCC 27853); test: Antibacterial viability (CFU) assay, IC50; assay type: cell-based; details: Pseudomonas aeruginosa, ATCC27853
Method: as §1, §2

E. coli (ATCC 25966) [7] = test: Antibacterial viability (CFU) assay, IC50; assay type: cell-based; details: Escherichia coli, ATCC25966; E. coil (ATCC 25966)
Method: as §1, §2

B. subtilis (ATCC 6633) [8] = test: Antibacterial viability (CFU) assay, IC50; assay type: cell-based
Method: as §1, §2

S. enteric (ATCC 43972) [9] = test: Antibacterial viability (CFU) assay, IC50; assay type: cell-based; details: read-out: IC50
Method: as §1, §2

[10] = DPPH radical scavenging assay; details: for IC50: 0.03 to 1 mg/mL, 1 h, mean ± SD, triplicate, read-out: IC50 (mM) for DPPH Scavenging Potency
In short: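 Ethanolic DPPH mixed with samples at 0.03 to 1 mg/mL, kept 1 h at room temperature in darkness, then absorbance read at 519 nm against compound-free control. Scavenging percentage computed as (1 − Acompound/Acontrol) × 100; IC50 interpolated from scavenging-versus-concentration plot.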

[11] = system: K. pneumonia (ATCC 700603); test: Antibacterial agar diffusion method (inhibition zone); assay type: cell-based
Method: as §1, §2

B. cereus (ATCC 14579) [12] = test: as above; assay type: cell-based
Method: as §1, §2

S. aureus (ATCC 25923) [13] = test: as above; assay type: cell-based
Method: as §1, §2

E. faecalis (ATCC 29122) [14] = test: as above; assay type: cell-based
Method: as §1, §2

[15] = system: S. epidermidis (ATCC 14990); test: as above; assay type: cell-based
Method: as §1, §2

[16] = system: P. aeruginosa (ATCC 27853); test: as above; assay type: cell-based
Method: as §1, §2

E. coli (ATCC 25966) [17] = test: as above; assay type: cell-based; details: E. coil (ATCC 25966)
Method: as §1, §2

B. subtilis (ATCC 6633) [18] = test: as above; assay type: cell-based
Method: as §1, §2

S. enteric (ATCC 43972) [19] = test: as above; assay type: cell-based
Method: as §1, §2

[20] = Reducing power assay (FRAC, Fe3+ to Fe2+); details: 0-1 mg/mL, absorbance 700 nm
In short: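 Oyaizu method: compound (0–1 mg/mL) incubated with 0.2 M phosphate buffer pH 6.6 and 1% K3Fe(CN)6 at 50 °C for 20 min, then TCA, centrifugation, and 0.1% FeCl3 added to supernatant. Absorbance read at 700 nm; EC50 expressed in mM, BHT as reference.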

[21] = read-out: Mean IC50 (µM) of cytotoxicity
[22] = read-out: Mean IC50 (µg/mL) of cytotoxicity
[23] = Bacillus subtilis, ATCC6633, B. subtilis (ATCC 6633)

Compound | viability at 100 µg/mL (HCT-116 cells) [%] | IC50 (HCT-116 cells; [21]) [µM] | IC50 (HCT-116 cells; [22]) [µg/mL] | IC50 [1] [µM] | IC50 (B. cereus (ATCC 14579) [2]) [µM] | IC50 (S. aureus (ATCC 25923) [3]) [µM] | IC50 (E. faecalis (ATCC 29122) [4]) [µM] | IC50 [5] [µM] | IC50 [6] [µM] | IC50 (E. coli (ATCC 25966) [7]) [µM] | IC50 (B. subtilis (ATCC 6633) [8]; [23]) [µM] | IC50 (S. enteric (ATCC 43972) [9]) [µM] | melting point [°C] | IC50 [10] [mM] | DPPH Radical Scavenging Effenciency (%) at 1 mg/mL [10] | IZ (mm) [11] [mm] | IZ (mm) (B. cereus (ATCC 14579) [12]) | IZ (mm) (S. aureus (ATCC 25923) [13]) | IZ (mm) (E. faecalis (ATCC 29122) [14]) | IZ (mm) [15] | other results
COc1cc(OC)c(C2C(C#N)=C(N)Oc3n[nH]c(C)c32)c(OC)c1 (stereo not shown) [5b, 6-Amino-3-methyl-4-(2,4,6-trimethoxy-phenyl)-2,4-dihydro-pyrano[2,3-c]pyrazole-5-carbonitrile] | 11 to 32.5 | 97.9 ± 7.06 | 33.5 ± 2.42 | 110 ± 1.75 | 42.6 ± 1.66 | 39.1 ± 1.66 | 45.1 ± 1.87 | 50.1 ± 0.61 | 92.3 ± 1.46 | 117 ± 4.09 | 41.8 ± 1.23 | 106 ± 2.92 | 182 to 184 | 1.78 ± 0.082 | 37.50 ± 2.12% | 4.5 ± 0.7 | 8.00 ± 1.41 | 5.50 ± 0.71 mm | 9.75 ± 1.06 | 6.60 mm and 6.60 ± 0.57 mm | IZ (mm) [16]: 6.5 ± 0.7 mm; IZ (mm) (E. coli (ATCC 25966) [17]): 3.5 ± 0.71 mm; IZ (mm) (B. subtilis (ATCC 6633) [18]): 8.50 ± 0.71 mm; IZ (mm) (S. enteric (ATCC 43972) [19]): 7.5 ± 0.7 mm; EC50 [20]: 467 ± 41 µM
CC1=C(C(=O)OCc2ccccc2)C(c2ccc(Cl)cc2Cl)C(C#N)=C(N)O1 (stereo not shown) [4m, 6-Amino-5-cyano-4-(2,4-dichloro-phenyl)-2-methyl-4H-pyran-3-carboxylic acid benzyl ester] | 11 to 32.5 | 89.3 ± 5.05 | 37.1 ± 2.1 | 66.7 ± 2.41 | 35.8 ± 1.2 | 33.2 ± 1.01 | 35.3 ± 2.22 | 35 ± 1.88 | 60.9 ± 2.17 | 69.4 ± 2.89 | 23.6 to 36.8 | 61.8 ± 2.17 | 146 to 148 | 0.421 ± 0.017 | 69.00% and 69.0 ± 2.83% | 6.5 ± 0.7 | 18.50 ± 0.71 | 17.50 mm and 17.50 ± 0.71 mm | 20.50 ± 0.71 | 18.50 ± 0.71 mm | IC50 (B. subtilis (ATCC 6633) [8]; B. subtilis (ATCC 6633)): 32.8 ± 2.05 µM; IZ (mm) [16]: 9.5 ± 0.7 mm; IZ (mm) (E. coli (ATCC 25966) [17]): 5.5 ± 0.71 mm; IZ (mm) (B. subtilis (ATCC 6633) [18]): 21.50 ± 0.71 mm; IZ (mm) (S. enteric (ATCC 43972) [19]): 8.5 ± 0.7 mm; EC50 [20]: 506 ± 34 µM
COC(=O)C1=C(C)OC(N)=C(C#N)C1c1cccc(O)c1Cl (stereo not shown) [4f, 6-Amino-4-(2-chloro-3-hydroxy-phenyl)-5-cyano-2-methyl-4H-pyran-3-carboxylic acid methyl ester] | 55.5 | 333 ± 13.4 | 107 ± 4.29 | 82 ± 3.43 | 42.4 ± 2.65 | 38.4 ± 1.31 | 34.6 ± 0.59 | 33 ± 2.65 | 105 ± 2.81 | 95.7 ± 5.61 | 23.6 to 36.8 | 94.2 ± 3.43 | 238 to 240 | 3.34 ± 0.131 | 43.75 ± 1.77% | 4.5 ± 0.7 | 22.50 ± 0.71 | 16.50 ± 0.71 mm | 19.00 ± 1.41 | 14.50 ± 0.71 mm | IC50 (B. subtilis (ATCC 6633) [8]; B. subtilis (ATCC 6633)): 36.8 ± 0.87 µM; IZ (mm) [16]: 6.0 ± 1.4 mm; IZ (mm) (E. coli (ATCC 25966) [17]): 7.5 ± 0.71 mm; IZ (mm) (B. subtilis (ATCC 6633) [18]): 19.50 ± 0.71 mm; IZ (mm) (S. enteric (ATCC 43972) [19]): 6.5 ± 0.7 mm; EC50 [20]: 398 ± 45 µM
CCOC(=O)C1=C(C)OC(N)=C(C#N)C1c1c(OC)cc(OC)cc1OC (stereo not shown) [4h, 6-Amino-5-cyano-2-methyl-4-(2,4,6-trimethoxy-phenyl)-4H-pyran-3-carboxylic acid ethyl ester] | 11 to 32.5 | 185 ± 11.5 | 69.2 ± 4.29 | 118 ± 2.67 | 46.5 ± 1.52 | 32.7 ± 0.93 | 45.9 ± 0.75 | 35.8 ± 1.52 | 89.5 ± 2.94 | 114 ± 0.8 | 50.1 ± 2.83 | 112 ± 2.94 | 196 to 198 | 1.31 ± 0.075 | 33.50 ± 2.12% | 3.5 ± 0.7 | 4.50 ± 0.71 | 17.50 mm and 17.50 ± 0.71 mm | 8.00 ± 1.41 | 16.50 ± 0.71 mm | IZ (mm) [16]: 4.5 ± 0.7 mm; IZ (mm) (E. coli (ATCC 25966) [17]): 1.5 ± 0.71 mm; IZ (mm) (B. subtilis (ATCC 6633) [18]): 6.00 ± 1.41 mm; IZ (mm) (S. enteric (ATCC 43972) [19]): 5.5 ± 0.7 mm; EC50 [20]: 221 ± 11 µM
COc1cccc(C2C(C#N)=C(N)OC(C)=C2C(=O)OCc2ccccc2)c1[N+](=O)[O-] (stereo not shown) [4c, 6-Amino-5-cyano-4-(3-methoxy-2-nitro-phenyl)-2-methyl-4H-pyran-3-carboxylic acid benzyl ester] | 11 to 32.5 | 102 ± 4.82 | 43 ± 2.03 | 112 ± 1.42 | 44.5 ± 0.83 | 37 ± 2.02 | 41.1 ± 2.18 | 30.4 ± 1 | 85.9 ± 2.61 | 93.7 ± 4.98 | 46.3 ± 1.68 | 100 ± 2.61 | 190 to 192 | 2.24 ± 0.05 | 57.10 ± 1.56% | 3.5 ± 0.7 | 14.00 ± 1.41 | 15.50 ± 0.71 mm | 10.00 ± 1.41 | 16.65 ± 0.50 mm | IZ (mm) [16]: 7.5 ± 0.7 mm; IZ (mm) (E. coli (ATCC 25966) [17]): 2.5 ± 0.71 mm; IZ (mm) (B. subtilis (ATCC 6633) [18]): 11.00 ± 1.41 mm; IZ (mm) (S. enteric (ATCC 43972) [19]): 8.5 ± 0.7 mm; EC50 [20]: 1230 ± 67 µM
